Patent publication US20110166149A1, “PTERIDINE DERIVATIVES FOR TREATING RESPIRATORY DISEASE” (TARGEGEN INC., priority 2008, published 2011)
Read-outs that look alike come from different tables or passages of the source. Marks after values point to notes of the source that are not given here.

Test: Inhalation exposure: Compound A concentration in lung, plasma and BALF (Example 2)
Assay type: in vivo, BALB/c mice
Conditions: for concentration at 0.5 h / concentration at 1 h / concentration at 2 h / concentration at 4 h / concentration at 8 h / concentration at 12 h / concentration at 24 h / concentration at 0.083 h / concentration at 0.25 h: male, BALB/c, mouse, lung, inhaled, read-out: Compound A concentration Lung; for concentration at 0.5 h / concentration at 1 h / concentration at 2 h / concentration at 4 h / concentration at 8 h / concentration at 12 h / concentration at 24 h / concentration at 0.083 h / concentration at 0.25 h / Compound A concentration Plasma: mice, 30 min inhalation
Experimental: A series of compositions for pulmonary delivery were prepared by making a 20% suspension of compound A in a 5% tyloxapol solution in water. Particle size reduction was achieved using a colloid mill (magicLAB®, MK module, for 6 hours @ 12,000 rpm, while maintaining a temperature below 50° C.). Samples at 4% w/v compound A were prepared by dilution with DI water.
Low (0.02 mg/L), mid (0.07 mg/L), and high (0.20 mg/L) target aerosol concentrations 0.3% Compound A/0.075% tyloxapol, 0.6% Compound A/0.15% tyloxapol, and 1.5% Compound A/0.375% tyloxapol suspensions were used. These low, mid, and high target formulations were prepared as follows: […]
4% compound A and 1% tyloxapol were removed from refrigeration and approximately 2.25, 4.5, and 12 mL were transferred into clean 50 mL graduated plastic tubes, labeled 0.3% A/0.075% tyloxapol, 0.6% A/0.15% tyloxapol, and 1.5% A/0.375% tyloxapol suspensions and allowed to warm to room temperature. Each was diluted to 20 mL with ultra pure water and vortexed until completely mixed. Each formulation was made the morning of exposure to alleviate any storing/stability issues.
Eighty-seven (87) male BALB/c mice (8 weeks of age on arrival and 18.6-24.6 g on exposure day) were purchased from Charles River Laboratories (Raleigh, N.C.). The three animals with the lowest body weights and the three with the highest body weights were excluded from the study on the day of randomization. The remaining eighty-one (81) animals were assigned to the study. Temperatures and relative humidity (RH) in animal housing areas were within the target range specified in the protocol.
Animals were exposed to one of three concentrations of Compound A aerosols for a target of 30 min.
The actual concentrations of test article in the exposure atmospheres were determined by chemical analysis of timed filter samples collected directly from a nose-only exposure port during exposure. In addition, one impactor sample was obtained to verify particle size distribution (PSD), which is characterized by mass median aerodynamic diameter (MMAD) and geometric standard deviation (GSD). The filters and impactor stages were analyzed chemically by LRRI and are described below.

[1] = nominal aerosol 0.02 mg/L, 0.5 h
[2] = nominal aerosol 0.02 mg/L, 12 h
[3] = nominal aerosol 0.02 mg/L, 24 h
[4] = nominal aerosol 0.07 mg/L, 0.083 h
[5] = nominal aerosol 0.07 mg/L, 0.25 h
[6] = nominal aerosol 0.07 mg/L, 0.5 h
[7] = nominal aerosol 0.07 mg/L, 12 h
[8] = nominal aerosol 0.07 mg/L, 24 h
[9] = nominal aerosol 0.2 mg/L, 0.083 h
[10] = nominal aerosol 0.2 mg/L, 0.25 h
[11] = nominal aerosol 0.2 mg/L, 0.5 h
[12] = mouse lung, aerosol conc. 0.02 mg/L
[13] = mouse lung, aerosol conc. 0.07 mg/L
[14] = mouse lung, aerosol conc. 0.2 mg/L

- concentration at 0.5 h [1]: 11700 ± 8050 ng/g
- concentration at 1 h (nominal aerosol 0.02 mg/L, 1 h): 11800 ± 7260 ng/g
- concentration at 2 h (nominal aerosol 0.02 mg/L, 2 h): 9550 ± 840 ng/g
- concentration at 4 h (nominal aerosol 0.02 mg/L, 4 h): 10500 ± 3250 ng/g
- concentration at 8 h (nominal aerosol 0.02 mg/L, 8 h): 5660 ± 3390 ng/g
- concentration at 12 h [2]: 8670 ± 2310 ng/g
- concentration at 24 h [3]: 3390 ± 2540 ng/g
- concentration at 0.083 h [4]: 20600 ± 10100 ng/g
- concentration at 0.25 h [5]: 16500 ± 2250 ng/g
- concentration at 0.5 h [6]: 16600 ± 600 ng/g
- concentration at 1 h (nominal aerosol 0.07 mg/L, 1 h): 17200 ± 2430 ng/g
- concentration at 2 h (nominal aerosol 0.07 mg/L, 2 h): 22700 ± 5090 ng/g
- concentration at 4 h (nominal aerosol 0.07 mg/L, 4 h): 17000 ± 1620 ng/g
- concentration at 8 h (nominal aerosol 0.07 mg/L, 8 h): 15900 ± 3310 ng/g
- concentration at 12 h [7]: 16800 ± 12500 ng/g
- concentration at 24 h [8]: 10800 ± 660 ng/g
- concentration at 0.083 h [9]: 41000 ± 10300 ng/g
- concentration at 0.25 h [10]: 39200 ± 12300 ng/g
- concentration at 0.5 h [11]: 67200 ± 39100 ng/g
- concentration at 1 h (nominal aerosol 0.2 mg/L, 1 h): 37700 ± 8070 ng/g
- concentration at 2 h (nominal aerosol 0.2 mg/L, 2 h): 49300 ± 15400 ng/g
- concentration at 4 h (nominal aerosol 0.2 mg/L, 4 h): 44600 ± 2400 ng/g
- concentration at 8 h (nominal aerosol 0.2 mg/L, 8 h): 44000 ± 12000 ng/g
- concentration at 12 h (nominal aerosol 0.2 mg/L, 12 h): 40800 ± 6290 ng/g
- concentration at 24 h (nominal aerosol 0.2 mg/L, 24 h): 26800 ± 2630 ng/g
- Compound A concentration Plasma (nominal aerosol 0.02 mg/L, 0.083 h): 2.16 (⅔) ng/mL
- Compound A concentration Plasma (nominal aerosol 0.02 mg/L, 0.25 h): <LLOQ
- Compound A concentration Plasma [1]: 1.98 (⅔) ng/mL
- Compound A concentration Plasma (nominal aerosol 0.02 mg/L, 1 h): 1.19 (⅓) ng/mL
- Compound A concentration Plasma (nominal aerosol 0.02 mg/L, 2 h): <LLOQ
- Compound A concentration Plasma (nominal aerosol 0.02 mg/L, 4 h): <LLOQ
- Compound A concentration Plasma (nominal aerosol 0.02 mg/L, 8 h): <LLOQ
- Compound A concentration Plasma [2]: <LLOQ
- Compound A concentration Plasma [3]: <LLOQ
- Compound A concentration Plasma [4]: 5.43 (⅓) ng/mL
- Compound A concentration Plasma [5]: 1.03 (⅓) ng/mL
- Compound A concentration Plasma [6]: 2.45 (⅓) ng/mL
- Compound A concentration Plasma (nominal aerosol 0.07 mg/L, 1 h): <LLOQ
- Compound A concentration Plasma (nominal aerosol 0.07 mg/L, 2 h): <LLOQ
- Compound A concentration Plasma (nominal aerosol 0.07 mg/L, 4 h): <LLOQ
- Compound A concentration Plasma (nominal aerosol 0.07 mg/L, 8 h): <LLOQ
- Compound A concentration Plasma [7]: 2.05 (⅓) ng/mL
- Compound A concentration Plasma [8]: <LLOQ
- Compound A concentration Plasma [9]: 1.34 (⅔) ng/mL
- Compound A concentration Plasma [10]: 1.43 (⅓) ng/mL
- Compound A concentration Plasma [11]: 1.15 (⅓) ng/mL
- Compound A concentration Plasma (nominal aerosol 0.2 mg/L, 1 h): 1.62 (⅔) ng/mL
- Compound A concentration Plasma (nominal aerosol 0.2 mg/L, 2 h): 1.21 (⅓) ng/mL
- Compound A concentration Plasma (nominal aerosol 0.2 mg/L, 4 h): 1.21 (⅔) ng/mL
- Compound A concentration Plasma (nominal aerosol 0.2 mg/L, 8 h): 2.19 (⅓) ng/mL
- Compound A concentration Plasma (nominal aerosol 0.2 mg/L, 12 h): 2.08 (⅔) ng/mL
- Compound A concentration Plasma (nominal aerosol 0.2 mg/L, 24 h): <LLOQ
- Thalf (mouse BALF, aerosol conc. 0.02 mg/L): 39.8 h
- Thalf (mouse BALF, aerosol conc. 0.07 mg/L): 16.7 h
- Thalf (mouse BALF, aerosol conc. 0.2 mg/L): 17.0 h
- AUC(0-24) [12]: 176 µg·h/g
- AUCinf [12]: 247 µg·h/g
- Thalf (mouse lung, aerosol conc. 0.02 mg/L, Regression Coefficient is less than 0.9): 14.5^# hrs
- AUC(0-24) [13]: 373 µg·h/g
- AUCinf [13]: 757 µg·h/g
- Thalf (mouse lung, aerosol conc. 0.07 mg/L, Regression Coefficient is less than 0.9): 24.6^# hrs
- AUC(0-24) [14]: 938 µg·h/g
- AUCinf [14]: 1777 µg·h/g
- Thalf [14]: 21.7 h
SMILES: Nc1nc(N)c2nc(-c3cccc(O)c3)c(-c3cccc(O)c3)nc2n1 [Compound A, 6,7-bis(3-hydroxyphenyl)-pteridine-2,4-diamine]
